Data: patent publication US9834755B2, “Compositions and methods for enhanced generation of hematopoietic stem/progenitor cells” (FRED HUTCHINSON CANCER RESEARCH CENTER, priority 2011, dated 2017)
Marks after values point to notes of the source that are not given here.

B1: Delta1^Ext-IgG: engineered Notch ligand: extracellular domain of Delta1 fused to the Fc portion of human IgG1, immobilized on tissue culture flasks (protein)
chain: QVWSSGVFELKLQEFVNKKGLLGNRNCCRGGAGPPPCACRTFFRVCLKHYQASVSPEPPCTYGSAVTPVLGVDSFSLPDGGGADSAFSNPIRFPFGFTWPGTFSLIIEALHTDSPDDLATENPERLISRLATQRHLTVGEEWSQDLHSSGRTDLKYSYRFVCDEHYYGEGCSVFCRPRDDAFGHFTCGERGEKVCNPGWKGPYCTEPICLPGCDEQHGFCDKPGECKCRVGWQGRYCDECIRYPGCLHGTCQQPWQCNCQEGWGGLFCNQDLNYCTHHKPCKNGATCTNTGQGSYTCSCRPGYTGATCELGIDECDPSPCKNGGSCTDLENSYSCTCPPGFYGKICELSAMTCADGPCFNGGRCSDSPDGGYSCRCPVGYSGFNCEKKIDYCSSSPCSNGAKCVDLGDAYLCRCQAGFSGRHCDDNVDDCASSPCANGGTCRDGVNDFSCTCPPGYTGRNCSAPVSRCEHAPCHNGATCHERGHRYVCECARGYGGPNCQFLLPELPPGPAVVDLTEKLEGQGGPFPW
modifications: left off: a dimerising Fc or GST
notes: engineered Notch ligand: extracellular domain of Delta1 fused to the Fc portion of human IgG1, immobilized on tissue culture flasks

How the values were obtained:
CD34+ cells = conditions: cited from earlier work
CD34^+ CB HSPC [1] = test: In vivo repopulation: cultured progeny of CD34+ CB HSPC transplanted into sublethally irradiated NSG mice; design: species or system human; conditions: for human engraftment upon secondary transplantation, average CD45^+: differences not statistically significant
Experimental: Sublethally irradiated NOD-SCID IL-2Rγ-null mice (obtained from an established breeding colony at the Fred Hutchinson Cancer Research Center and approved for use by the Fred Hutchinson Cancer Research Center Institutional Animal Care and Use Committee) were infused with the progeny 10,000 starting CD34^+ cells per mouse via tail vein for cord blood experiments and the progeny of 20,000 for PBSC experiments. Repopulating ability of infused cells was assessed at 2-3 weeks post-transplant by bone marrow aspiration and at 13 weeks by bone marrow harvest.
Cells were cultured as described above and transplanted into sublethally irradiated immunodeficient NSG mice. Total human engraftment was defined as percent of human CD45^+ murine CD45.1^− cells based on bone marrow aspirate at 2 weeks post-transplant. Total myeloid engraftment was defined as percent human CD45^+CD33^+ murine CD45.1 cells on bone marrow aspirate at the same time point.
The progeny of 1×10^4 CD34^+ cells were then transplanted into 10 sublethally irradiated NSG mice per condition and engraftment was assessed by bone marrow aspirate at 2 weeks post-transplant. Total human engraftment was defined as percent of human CD45^+ murine CD45.1^− cells based on bone marrow aspirate at 2 weeks post-transplant. Total myeloid engraftment was defined as percent human CD45^+CD33^+ murine CD45.1^− cells on bone marrow aspirate at the same time point.
Transplants into NSG mice were performed as described above, with the cultured progeny of 1×10^4 CD34^+ cells. Cells were cultured in the presence of SR1, Delta1^Ext-IgG 2.5 μg/ml, or SR1 and Delta1^Ext-IgG (2.5 or 5 μg/ml) for 16 days.
Cells were cultured and transplanted as described above with the progeny of 1×10^4 CD34^+ cells transplanted per mouse. Total human, progenitor cell, myeloid, and lymphoid assessments were performed on bone marrow samples. Bone marrow aspirates were performed in the mice at 2 and 8 weeks post-transplant, and mice were sacrificed for bone marrow harvest at 13 weeks.

CD34^+ CB HSPC [2] = test: SRC frequency by limiting dilution analysis in NSG mice; assay type: in vivo, human; conditions: Delta1^Ext-IgG 2.5 μg/ml alone, 5 μg/ml with SR1; for No. mice engrafted, Engraftment with ≧0.5% CD34^+ cells / No. mice engrafted, Engraftment with ≧1% CD33^+ cells / No. mice engrafted, Engraftment with ≧1% CD34^+ cells / No. mice engrafted, Engraftment with ≧5% CD33^+ cells: bone marrow aspirate at 2 weeks; for CD33^+ SRC frequency per starting cell, Engraftment with ≧1% CD33^+ cells / CD33^+ SRC frequency per starting cell, Engraftment with ≧5% CD33^+ cells / CD34^+ SRC frequency per starting cell, Engraftment with ≧0.5% CD34^+ cells / CD34^+ SRC frequency per starting cell, Engraftment with ≧1% CD34^+ cells: limiting dilution analysis, maximum likelihood
Source text: Human cord blood (CB) samples for research were obtained from normal deliveries under Swedish Medical Center Institutional Review Board (Seattle) approval and after consent was obtained. CB samples were red blood cell depleted (Delaney et al., 2010, Nat Med 16(2):232-236), CD34 enriched using CD34^+ immunomagnetic particles (Miltenyi Biotec), purified with Automacs (Miltenyi Biotec), and cryopreserved. […] Cultures were initiated with 7×10^4 to 1.3×10^5 CD34^+ cells for 25-cm^2 flasks and with 3×10^5 CD34^+ cells for 75-cm^2 flasks. Immunofluorescence analysis was performed as described (Ohishi et al., 2002, J Clin Invest. 110(8):1165-1174) with labeled antibodies: FITC (human CD14, CD33, and Lineage); PE (human CD7, CD14, CD15, CD19, CD90, and CD123); PERCP (human CD34); APC (human CD10, CD45, IL3Ra); PECy7 (mouse CD45.1, human CD34); Alexa Fluor 700 (CD38); APC-eFluor 780 (CD45RA). Transplants were performed in sublethally irradiated (275 rad) NOD-SCID IL-2Rγ-null mice (NSG). In vivo engraftment was assessed by immunofluorescence analysis of human cell subsets (human CD45^+ murine CD45.1). On average, the total number of cells infused was 4.25×10^6/mouse for Delta1^ext-IgG alone, 1.88×10^7/mouse for SR1 alone, and 4.76×10^6/mouse for the combination. Statistical analyses were performed as indicated. For limiting dilution analysis, mice were injected with the cultured progeny of the number of CD34^+ cells indicated and bone marrow aspirates performed at 2 weeks. Two engraftment cut-offs were chosen based on percent engraftment observed in non-limiting transplantation studies. The frequency of SRCs was determined by the method of maximum likelihood with L-CALC software (StemCell Technologies) from the proportions of engrafted recipients (A, B).

CD34^+ cord blood HSPC = conditions: culturing HSPC with SR1; cited from earlier work
CD34^+ CB HSPC [3] = test: Ex vivo culture/expansion of CD34+ cord blood HSPC, cell counts and flow cytometric phenotype; assay type: cell-based, human; conditions: for CD34 expansion compared to IgG control: 7, 14, 18 and 21 days in culture, alone groups: data not shown
Experimental: (§1) Human cord blood samples for research were obtained from normal deliveries under Swedish Medical Center Institutional Review Board (Seattle) approval and after consent was obtained. The units were incubated in ammonium chloride red blood cell lysis buffer (consisting of 16.6 g NH4Cl, 2 g NaHCO3 and 74.4 mg EDTA per 2L of water) and resuspended in PBS with 2% human AB serum. Cells were incubated with CD34 Microbeads from Miltenyi Biotec and purified with an Automacs (Miltenyi Biotec). Cells were then frozen and thawed at time of use with PBS+1% FBS. Pools of 2 or more cord blood units were used for all experiments. Peripheral blood stem cells (PBSC) were obtained from a single donor and cryopreserved after CD34^+ cell selection.
Cells were cultured for 16 days in non-tissue-cultured-treated tissue culture flasks (25, 75, and 175-cm^2). Flasks were precoated with Delta1^ext-IgG (ligand preparation described in Delaney C. et al., 2005, Blood 106(8):2693-2699; and Varnum-Finney et al., 2000, J. Cell Science 113: 4313-4318), or human control IgG at 2.5 μg/ml and retronectin 5 μg/ml. Delta1^ext-IgG titrations were performed with concentrations of 0.5, 1.25 (for PBSC), 2.5, or 5 μg/ml. Flasks were incubated at 4° C. overnight or 37° C. for 2 hours and then washed with PBS and blocked with PBS 2% BSA for 30 minutes at 37° C. Cells were cultured in StemSpan serum-free expansion medium in the presence of 4 growth factors (IL6 (50 ng/ml), thrombopoietin (50 ng/ml), Flt-3 ligand (50 ng/ml), stem cell factor (50 ng/ml)) or 5 growth factors (4 growth factors plus IL3 (10 ng/ml)). SR-1 was made fresh and added to cells with all feedings at a concentration of 750 nM. Cultures in 25-cm^2 flasks were initiated with between 7×10^4 and 1.3×10^5 CD34^+ cells. Cultures in 75-cm^2 flasks were initiated with 3×10^5 CD34^+ cells. Cells were expanded to larger flasks when they exceeded cell density >1×10^6 cells/ml. Expansions typically occurred on day 7 and 10 of culture. Fresh media with cytokines was added very 3-4 days including the day prior to transplantation.
Immunofluorescence analysis was performed as described (see Ohishi et al., 2002, J Clin Invest. 110(8): 1165-1174), with FITC-labeled antibodies against human CD3, CD14, CD15, CD33, CD34, CD90, phycoerythryin (PE)-labeled antibodies against human CD19, CD56, CD90, CD133, Glycophorin A, CXCR4, PERCP-labeled antibodies against human CD14, CD34, APC-labeled antibodies against human CD45, CD90 and PECy7 labeled antibody against mouse CD45.1.
To determine whether Delta1^Ext-IgG and SR1 in combination were successfully able to expand CD34^+ CB HSPC ex vivo, CD34^+ cell generation, an HSPC enriched population routinely used in clinical application, was assessed at multiple time points in culture as compared to IgG control. CD34^+ CB progenitors were isolated by bead selection and Automacs and then cultured for 21 days in StemSpan serum-free expansion media supplemented with cytokines (TPO, SCF, IL-6, and Flt3-ligand at 50 ng/ml). […] Cells were cultured in the presence of SR1 (750 nM) and Delta1^Ext-IgG (0.5 or 2.5 μg/ml) or an IgG control. The engineered Notch ligand, Delta1^ext-IgG, contains the extracellular domain of Delta1 fused to the Fc portion of human IgG1 and is immobilized on the plastic surface of tissue culture flasks at varying densities. Immobilization of the Fc portion of human IgG1 served as a control construct. […] CD34^+ selected cells were seeded per flask from a pool of 2 CB units. […]

[4] = tested on: mobilized peripheral blood stem cells (mPBSC); test: Ex vivo culture of mobilized peripheral blood stem cells; assay type: cell-based, human; conditions: mPBSC cultured 16 days
Experimental: as §1
Cells were cultured for 16 days in non-tissue-cultured-treated tissue culture flasks (25, 75, and 175-cm^2). Flasks were precoated with Delta1^ext-IgG (ligand preparation described in Delaney C. et al., 2005, Blood 106(8):2693-2699; and Varnum-Finney et al., 2000, J. Cell Science 113: 4313-4318), or human control IgG at 2.5 μg/ml and retronectin 5 μg/ml. Delta1^ext-IgG titrations were performed with concentrations of 0.5, 1.25 (for PBSC), 2.5, or 5 μg/ml. Flasks were incubated at 4° C. overnight or 37° C. for 2 hours and then washed with PBS and blocked with PBS 2% BSA for 30 minutes at 37° C. […]

HSPC = conditions: culturing HSPC with SR1; cited from earlier work
[5] = patients, vs concurrent cohort receiving double cord blood transplantation of non-manipulated units; cited from earlier work

Row | Molecule | EC50 (CD34+ cells) [µM] | human engraftment upon secondary transplantation, average CD45^+ (CD34^+ CB HSPC [1]) [%] | No. mice engrafted, Engraftment with ≧0.5% CD34^+ cells (CD34^+ CB HSPC [2]; 1000 CD34^+ cells/mouse) | No. mice engrafted, Engraftment with ≧1% CD33^+ cells (CD34^+ CB HSPC [2]; 1000 CD34^+ cells/mouse) | No. mice engrafted, Engraftment with ≧1% CD34^+ cells (CD34^+ CB HSPC [2]; 1000 CD34^+ cells/mouse) | No. mice engrafted, Engraftment with ≧5% CD33^+ cells (CD34^+ CB HSPC [2]; 1000 CD34^+ cells/mouse) | No. mice engrafted, Engraftment with ≧0.5% CD34^+ cells (CD34^+ CB HSPC [2]; 4000 CD34^+ cells/mouse) | No. mice engrafted, Engraftment with ≧1% CD33^+ cells (CD34^+ CB HSPC [2]; 4000 CD34^+ cells/mouse) | No. mice engrafted, Engraftment with ≧1% CD34^+ cells (CD34^+ CB HSPC [2]; 4000 CD34^+ cells/mouse) | No. mice engrafted, Engraftment with ≧5% CD33^+ cells (CD34^+ CB HSPC [2]; 4000 CD34^+ cells/mouse) | No. mice engrafted, Engraftment with ≧0.5% CD34^+ cells (CD34^+ CB HSPC [2]; 20000 CD34^+ cells/mouse) | No. mice engrafted, Engraftment with ≧1% CD33^+ cells (CD34^+ CB HSPC [2]; 20000 CD34^+ cells/mouse) | No. mice engrafted, Engraftment with ≧1% CD34^+ cells (CD34^+ CB HSPC [2]; 20000 CD34^+ cells/mouse) | No. mice engrafted, Engraftment with ≧5% CD33^+ cells (CD34^+ CB HSPC [2]; 20000 CD34^+ cells/mouse) | CD33^+ SRC frequency per starting cell, Engraftment with ≧1% CD33^+ cells (CD34^+ CB HSPC [2]) | CD33^+ SRC frequency per starting cell, Engraftment with ≧5% CD33^+ cells (CD34^+ CB HSPC [2]) | CD34^+ SRC frequency per starting cell, Engraftment with ≧0.5% CD34^+ cells (CD34^+ CB HSPC [2]) | CD34^+ SRC frequency per starting cell, Engraftment with ≧1% CD34^+ cells (CD34^+ CB HSPC [2]) | CD34 expansion compared to IgG control (CD34^+ CB HSPC [3]) | further results
1 | CC(C)n1cnc2c(NCCc3ccc(O)cc3)nc(-c3cncc(F)c3)nc21 [Example 134] | 0.2 |  |  |  |  |  |  |  |  |  |  |  |  |  |  |  |  |  |  | 
2 | CC(C)n1cnc2c(NCCc3ccc(O)cc3)nc(-c3cnccc3C#N)nc21 [Example 143] | 4.3 |  |  |  |  |  |  |  |  |  |  |  |  |  |  |  |  |  |  | 
3 | CC(C)n1cnc2c(NCCc3ccc(O)cc3)nc(-c3cccc4cnccc34)nc21 [Example 145] | 5.4 |  |  |  |  |  |  |  |  |  |  |  |  |  |  |  |  |  |  | 
4 | Fc1cncc(-c2nc(NCCc3c[nH]c4ccccc34)c3ncn(C4CCOC4)c3n2)c1 (stereo not drawn) [Example 158] | 0.012 |  |  |  |  |  |  |  |  |  |  |  |  |  |  |  |  |  |  | 
5 | CC(C)n1cnc2c(NCCc3ccc(O)cc3)nc(-c3csc4ccccc34)nc21 [SR1, 4-(2-(2-(benzo[b]thiophen-3-yl)-9-isopropyl-9H-purin-6-ylamino)ethyl)phenol] |  | 0.11 | 1/9 | 3/9 | 1/9 | 1/9 | 2/9 | 5/9 | 1/9 | 1/9 | 7/7 | 7/7 | 6/7 | 7/7 | 1/3868** | 1/10063^## | 1/8495** | 1/13514^## | enhanced CD34 expansion | rapid repopulation by B-lymphoid cells (percent CD45^+CD33^-CD19^+) in comparison with Delta1^Ext-IgG alone or the combination (CD34^+ CB HSPC [1]; early time point (2 weeks)): significantly enhanced; increase in CD34^+ cells (CD34^+ cord blood HSPC): 50 fold; total nucleated cell (TNC) expansion over IgG control and all Delta1^Ext-IgG conditions (CD34^+ CB HSPC [3]; 7-16 days in culture): enhanced; ex vivo generation of total nucleated cells (TNC) compared to Delta1^Ext-IgG (2.5 μg/ml) or SR1 and Delta1^Ext-IgG (5 μg/ml) combined (CD34^+ CB HSPC [3]; SR1 750 nM, 14 days, p<0.001, p=0.04): significantly enhanced; TNC and CD34^+ cell expansion in vitro [4]: greatest TNC and CD34^+ cell expansion; increase in the number of cells with the ability to repopulate immunodeficient mice (HSPC): 17 fold
6 | B1 |  | 0.22 | 0/9 | 2/9 | 0/9 | 0/9 | 1/9 | 9/9 | 0/9 | 3/9 | 7/7 | 7/7 | 6/7 | 6/7 | 1/1719* | 1/11314^# | 1/11739* | 1/19121^# | enhanced CD34 expansion | reduction in time to neutrophil engraftment [5]: 50%; TNC generation with increasing densities of Delta1^Ext-IgG (CD34^+ CB HSPC [3]; day 16, SR1 with Delta1^Ext-IgG 0, 0.5, 2.5 or 5 μg/ml): decreased TNC generation in a stepwise manner
